Source: publication PMC12195615, “In Vitro and In Silico Assessments of Curcuminoids and Turmerones from Curcuma longa as Novel Inhibitors of Leishmania infantum Arginase” (Pharmaceuticals, 2025)
Converted amounts (≈) assume the structure as drawn. Like-named read-outs stand apart in the source and are kept apart here. Marks after values point to notes of the source that are not given here.

What was measured:
[1] = tested on: RAW 264.7 (murine macrophages); test: Cytotoxicity assay (MTT), RAW 264.7; settings: 48 h treatment, MTT; mean ± SE
Protocol: (§3) RAW 264.7 (murine macrophages) and VERO (normal African green monkey kidney epithelial cells) lines were obtained from Banco de Células do Rio de Janeiro (BCRJ, RJ, Brazil) under the codes 0212 and 0245, respectively. Both were cultured in complete DMEM medium (10% FBS, 100 U/mL penicillin, 100 µg/mL streptomycin, and 3 µg/mL Fungizone®) at 37 °C and 5% CO2 atmosphere. After reaching subconfluence, the cells were washed twice with cold phosphate saline buffer (PBS, pH 7.2), detached by trypsinization, and seeded into 96-well microplates (10^5 cells/100 μL). […] The cells were further incubated under the same conditions for another 48 h. Drug-free cells cultured in DMEM served as positive controls of viability. The concentration of the solvent (DMSO) was normalized in all wells (1%) of treatment and control. Cell viability was assessed using a colorimetric assay based on the reduction of tetrazolium salt [69].

[2] = tested on: NO production by RAW 264.7 macrophages infected with L. infantum; test: NO production (Griess reaction) by L. infantum-infected macrophages; format: cell-based, murine; settings: 48 h treatment, compared to untreated control
Protocol: (§1) After adhesion, the cells were incubated for 24 h in the presence of L. infantum promastigotes at a ratio of 10 parasites per macrophage at 35 °C in a 5% CO2 atmosphere. After the interaction period, the wells were washed with PBS to remove non-internalized promastigotes, and the infected macrophages were incubated for 24 h under the same conditions. […] Untreated infected macrophages served as a positive control for amastigote viability. After 48 h of treatment, the supernatant was collected, and the coverslips were stained with Panoptic. […] The IC50 was then calculated using dose–response curve regression analysis.
The supernatant from L. infantum-infected macrophages, treated as described in Section 3.11, was collected to assess NO production using the Griess reaction. In short, 100 µL of the collected supernatants were transferred to 96-well microplates, followed by the addition of an equal volume of Griess reagent (0.5% sulfanilamide and 0.05% naphthylenediamine dihydrochloride in 5% phosphoric acid) to each well. The plates were then incubated at room temperature in the dark for 20 min. After incubation, the absorbance was measured at 570 nm.

[3] = tested on: intracellular L. infantum amastigotes; test: Inhibition of intracellular amastigotes in infected RAW 264.7 macrophages; format: cell-based, Leishmania infantum; settings: for number of amastigotes per 100 infected macrophages: 20 μg/mL, 48 h, vs untreated control, p < 0.05; for IC50: Leishmania infantum
Protocol: as §1

[4] = tested on: Leishmania amazonensis promastigotes; test: Anti-promastigote activity (resazurin), L. amazonensis; format: cell-based; settings: 48 h
Protocol: (§2) Promastigote forms of Leishmania infantum (MHOM/BR/1974/PP75) and Leishmania amazonensis (IFLA/BR/1967/PH8) were cultured in complete Schneider’s Insect Medium (SIM, 10% FBS). […] Drug-free parasite cultures served as a positive control of viability. […] After 24 h of promastigote incubation, 100 μM resazurin was added, and the cells were cultured for an additional 24 h. At 48 h of the treatment, parasites were assessed fluorometrically (555 nm excitation and 585 nm emission) for viability using a microplate reader Spectra Max M2 (Molecular Devices, CA, USA). Dose–response curves were then generated, and the half-maximal inhibitory concentrations (IC50) for each treatment were determined through regression analysis.

[5] = tested on: sheep red blood cells (RBC); settings: for hemolytic activity (CH50) RBC: sheep RBC, 1 h at 37 °C, mean ± SE
Protocol: Blood samples were washed four times with cold PBS to remove plasma, and a 4% (v/v) RBC suspension was prepared in the same buffer. […] After a 1 h incubation at 37 °C, the reaction was stopped by adding 200 µL of PBS. A positive hemolysis control was performed by adding 200 µL of distilled water to untreated cells. The microplates were then centrifuged (2000 rpm/5 min), and 200 µL of the supernatants were transferred to new 96-well microplates for spectrophotometric analysis at 540 nm (SpectraMax M2, Molecular Devices, CA, USA). The percentage of hemolysis for each treatment was calculated relative to the hemolysis control (100%), and the 50% hemolytic concentration (HC50) was determined through regression analysis of the dose–response curves.

[6] = tested on: VERO (normal African green monkey kidney epithelial cells); test: Cytotoxicity assay (MTT), VERO; format: cell-based; settings: 48 h treatment, mean ± SE
Protocol: as §3

[7] = tested on: Leishmania infantum promastigotes; test: Anti-promastigote activity (resazurin), L. infantum; format: cell-based; settings: for L. infantum IC50 ± SE: promastigotes, resazurin; for IC50: Leishmania infantum
Protocol: as §2

Pgp = settings: affected the uptake of rhodamine-123 and digoxin; cited from earlier work
L. major promastigotes [8] = tested on: L. major promastigotes; parameters: method as in PMID 10865470; settings: cited from earlier work
J774.A.1 macrophages = tested on: J774.A.1 macrophages; parameters: method as in PMID 35325685; settings: cited from earlier work
human arginase I = tested on: human arginase I; parameters: method as in PMID 37462864; settings: cited from earlier work
[9] = target: recombinant arginase from L. infantum (LiARG) (Leishmania infantum, UniProt A4IB49); test: LiARG inhibition assay (urea quantification); format: biochemical
Protocol: The expression and purification of recombinant arginase from L. infantum (LiARG) were previously detailed by our group. LiARG inhibition was performed by incubating different concentrations (4.7 to 100 μg/mL) of the samples in the enzymatic reaction solution: 50 mM CHES buffer (pH 9.5) and 50 mM L-arginine. The enzymatic reaction was initiated by adding LiARG (10 μg/mL) and allowed to proceed for 5 min at 37 °C before being stopped on ice. Subsequently, enzymatic activity was assessed by measuring the conversion of L-arginine to urea using a commercial kit (Labtest UREA CE kit®, Lagoa Santa, MG, Brazil). The amount of urea produced in each reaction was determined spectrophotometrically at 600 nm, following its hydrolysis into ammonia and conversion into indophenol blue. […] From that, the IC50 was determined by regression analysis.

mouse arginase = settings: colorectal cancer model; cited from earlier work
L. major promastigotes [10] = settings: 15 µM; cited from earlier work
[11] = Cytotoxicity assay (MTT), RAW 264.7; settings: mouse, RAW 264.7 macrophage cells
Protocol: as §3

intracellular amastigote = settings: 20 µM, within 24 h of treatment; cited from earlier work
[12] = tested on: promastigotes and axenic amastigotes of L. donovani; settings: 15 µM; cited from earlier work
[13] = tested on: L. donovani promastigotes; settings: read-out: IC50 against L. donovani promastigotes; cited from earlier work
L. braziliensis = settings: topical 1.5 mg/day, hamsters infected with L. braziliensis; cited from earlier work

For `O.O.O.O=C([O-])C(O)C(O)C(=O)[O-].O=C([O-])C(O)C(O)C(=O)[O-].[K+].[K+].[Sb].[Sb]` (stereo not drawn) [PAT, potassium antimony(III) tartrate hydrate, reference compound], the “Cytotoxicity (CC50) RAW 264.7” value [1] was 30.8 ± 0.73 ^b μg/mL, the NO levels [2] was “increased NO levels at 10 and 20 µg/mL” and the “number of amastigotes per 100 infected macrophages” value [3] was “significantly reduced”. The “IC50 against intracellular L. infantum amastigotes” value ([3]; infected RAW 264.7, 48 h treatment) was 18.9 ± 4.06 µg/mL, the “L. amazonensis IC50 ± SE” value ([4]; promastigotes, resazurin) was 11.9 ± 3.1 ^c,d µg/mL and the hemolytic potential ([5]; at the highest concentration tested (100 μg/mL)) was “did not show hemolytic potential”. The “hemolytic activity (CH50) RBC” value [5] was over 100 µg/mL, the “Cytotoxicity (CC50) VERO” value [6] was 23.9 ± 1.5 ^b μg/mL and the “L. infantum IC50 ± SE” value ([7]; 48 h) was under 6.25 µg/mL.
For `CC(C)=CC(=O)C[C@H](C)C1C=CC(C)=CC1` (stereo partly drawn) [compound 5, α-turmerone], the Pgp inhibition (Pgp) is listed as “Pgp inhibitor”.
In the case of `COc1cc(/C=C/C(O)=C/C(=O)/C=C/c2ccc(O)cc2)ccc1O` [compound 2, demethoxycurcumin], the “IC50 against L. major promastigotes” value (L. major promastigotes [8]) is listed as 14.1 ± 4.8 µg/mL (≈ 41.7 µM).
For `CC(C)=CC(=O)C[C@H](C)c1ccc(C)cc1` [compound 4, ar-turmerone], the “CC50 J774.A.1 macrophages” value (J774.A.1 macrophages) is given as 720.06 µg/mL (≈ 3330 µM).
For `CC(C)C1=C[C@H]2[C@@H](CC[C@]2(C)O)[C@](C)(O)CC1` [alismoxide], the “inhibitory activity against human arginase I” value (human arginase I) is given as “showed inhibitory activity”.
In the case of `O=C(/C=C/c1ccc(O)cc1)CC(=O)/C=C/c1ccc(O)cc1` [compound 3, bisdemethoxycurcumin], the “IC50 against L. major promastigotes” value (L. major promastigotes [8]) is listed as 21.5 ± 6.9 µg/mL (≈ 69.7 µM).
`O=c1c(O)c(-c2ccc(O)c(O)c2)oc2cc(O)cc(O)c12` [Quercetin (7), Quercetin, reference compound] showed an IC50 [9] of under 20.7 µM.
For `COc1cc(/C=C/C(=O)CC(=O)/C=C/c2ccc(O)c(OC)c2)ccc1O` [compound 1, curcumin], the “reduction of mouse arginase activity” value (mouse arginase) is listed as 73%, the “growth of L. major promastigotes” value (L. major promastigotes [10]) is listed as “did not inhibit the growth” and the CC50 at 48 h [11] is listed as 69.8 ± 2.8 µg/mL (≈ 189 µM). The NO levels [2] was “reduced NO levels at concentrations starting from 5 µg/mL”, the “number of amastigotes per 100 infected macrophages” value [3] was “significantly reduced” and the IC50 ([3]; RAW264.7, 48 h, read-out: IC50 against intracellular L. infantum amastigotes) was 13.6 µg/mL. For the same compound, the IC50 ([3]; RAW264.7, converted from 13.6 µg/mL, read-out: IC50 against L. infantum intracellular amastigotes) was about 36.9 µM, the “reduction of intracellular amastigote load” value (intracellular amastigote) was 85% and the IC50 ([4]; Leishmania amazonensis, read-out: L. amazonensis IC50 ± SE) was 5.5 ± 0.45 µg/mL (≈ 14.9 µM). For the same compound, the “hemolytic activity (CH50) RBC” value [5] was over 200 µg/mL, the “growth of promastigotes and axenic amastigotes of L. donovani” value [12] was “did not inhibit the growth” and the IC50 ([7]; 48 h, read-out: L. infantum IC50 ± SE, promastigotes, 48 h, resazurin) was 15 µg/mL. For the same compound, the IC50 ([7]; read-out: IC50 against L. infantum promastigotes (molar), converted from 15.5 µg/mL) was about 42 µM, the “L. infantum IC50 ± SE” value ([7]; 48 h, listed as Curcumin (1)) was 15.5 ± 1.7 ^c µg/mL and the IC50 [13] was 25 µM. The therapeutic response (L. braziliensis) was 83%, the “IC50 against L. major promastigotes” value (L. major promastigotes [8]) was 7.8 ± 3.3 µg/mL (≈ 21.2 µM) and the IC50 [9] was 47.6 µM.
